Experimental findings from article PMC2712759, “Hsp70 Chaperones and Type I PRMTs Are Sequestered at Intranuclear Inclusions Caused by Polyalanine Expansions in PABPN1” (PLoS ONE, 2009) are described below.

Assay [1] has as its target T1, PABPN1 (Homo sapiens, UniProt Q86U42).
T1 construct: recombinant full-length (306 aa for normal PABPN1, 10-Ala tract, N-terminus M-(A)10-GAAGGRG); details in supplement S1
T1 sequence (Q86U42 1-306): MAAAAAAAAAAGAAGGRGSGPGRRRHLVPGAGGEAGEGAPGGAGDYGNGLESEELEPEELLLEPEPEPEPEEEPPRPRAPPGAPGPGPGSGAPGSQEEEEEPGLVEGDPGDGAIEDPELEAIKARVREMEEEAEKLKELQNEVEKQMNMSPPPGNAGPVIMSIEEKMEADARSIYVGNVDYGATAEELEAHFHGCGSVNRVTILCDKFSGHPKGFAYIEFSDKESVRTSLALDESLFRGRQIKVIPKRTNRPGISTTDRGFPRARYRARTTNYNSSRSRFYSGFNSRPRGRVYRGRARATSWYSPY
Description: ANS fluorescence titration. It is filed as binding.

Assay [2] deals with T2, PABPN1 (Homo sapiens, UniProt Q86U42, INS11AAAAAAA).
T2 construct: recombinant full-length (306 aa for normal PABPN1, 10-Ala tract, N-terminus M-(A)10-GAAGGRG); details in supplement S1
T2 sequence (Q86U42 with tags, fused parts or gaps INS11AAAAAAA): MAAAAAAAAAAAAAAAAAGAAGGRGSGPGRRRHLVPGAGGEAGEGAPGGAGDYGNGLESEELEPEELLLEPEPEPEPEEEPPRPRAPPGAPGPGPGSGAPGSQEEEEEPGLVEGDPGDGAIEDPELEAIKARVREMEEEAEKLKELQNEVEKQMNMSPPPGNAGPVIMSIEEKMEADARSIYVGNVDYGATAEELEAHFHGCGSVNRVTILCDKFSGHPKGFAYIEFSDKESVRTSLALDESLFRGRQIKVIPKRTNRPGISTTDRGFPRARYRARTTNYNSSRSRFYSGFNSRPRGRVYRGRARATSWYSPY
Description: ANS fluorescence titration. It is filed as binding.

Molecules are shown by their SMILES.

For `O=S(=O)(O)c1cccc2cccc(Nc3ccccc3)c12` [1-Anilino naphthalene-8-sulfonic acid], the Kd on PABPN1 [1] stood at 75 µM; at PABPN1 [2], 42 µM.
